Where two headings read alike, the source gives them in different places.
Tests used:
[1] = tested on: EGF-induced tyrosine phosphorylation in A431 cells; experiment: Inhibition of cellular tyrosine autophosphorylation (VAP assay); type: cell-based; conditions: Homo sapiens, A-431, 10 min, read-out: VAP IC50
Protocol: Inhibition of cellular tyrosine autophosphorylation (VAP assay)
EGF is able to induce the phosphorylation in tyrosine of a specific set of intracellular proteins including EGFR itself. This increase in tyrosine phosphorylation was measured using the Vectastain-ABC-AP kit (Vector Laboratories) following the manufacturer's instructions. Briefly, 2×10^4 A431 cells per well were plated into a microtiter plate and incubated for 3 days at 37° C./5% CO2 until the cultures reached confluency. Cell monolayers were washed with PBS and covered with fresh medium containing 0.1 bovine serum albumin (BSA). Serial dilution of test compounds were added 2 h before the addition of 100 ng/ml EGF; after 10 min stimulation the culture medium was withdrawn, cells were washed 2 times with PBS and fixed for 10 min with cold methanol (-20° C.). After fixation […] of blocking solution (3% BSA in PBS, 0.2% Tween 20, 1% normal horse serum) were added for 1 h at 37° C. Blocking solution was replaced with 3% BSA in PBS containing the antiphosphotyrosine antibody 4G10 (UBI) diluted 1:30000 and incubated for 1 h. […] Reaction was developed for 30 min in the dark and the plates were read at 405 nm.

[2] = target: T1, EGFR (Homo sapiens, UniProt P00533); experiment: EGFR-Autophosphorylation Assay (AMIKA assay); type: biochemical; conditions: A431 membranes; for inhibition at 1 µM: 1 μM compound; for inhibition at 1 µM / inhibition at 10 µM: EGF-stimulated; for inhibition at 10 µM: 10 μM compound; for IC50: EGF 200 nM pre-treatment
T1 construct: A431 crude membrane extracts as source of the receptor; endogenous in cells; host or cells: A431 human epidermoid carcinoma cells, crude membranes
Protocol: EGFR-Autophosphorylation Assay (AMIKA assay) The EGFR autophosphorylation was assayed using A431 crude membrane extracts as source of the receptor. Membrane purification: Membranes were prepared as reported by A. Levitzky et al. (Methods in Enzymology 201, 347 (1991) with minor modifications and adapting the method to the A431 human epidermoid carcinoma cell line. Briefly, low density cells growing in RPMI 1640 plus 10% foetal calf serum were detached using 1 mM EDTA in phosphate buffer saline (PBS) and lysed in cold Lysing buffer (1 ml/10^6 cells) (20 mM HEPES pH 7.6, 10 mM NaCl, 2 mM EDTA, […], 1 mM PMSF). Cells were homogenized by 10 strokes in Dounce homogenizer. Nuclei and debris were removed by low speed centrifugation. Membranes were pelletized by ultracentrifugation (1 h, 100000×g) and resuspended in cold HNG buffer (50 mM HEPES pH 7.6, 125 mM NaCl, 10% glycerol). Protein concentration, determined by Pierce BCA method, was adjusted to 1.5-2 mg/ml. Aliquots were stored at -80° C. Determination of IC50 : […] The reaction was stopped with […] solution. The samples were heated 5 min at 95° C. and submitted to SDS-PAGE (7.5% acrylamide gel). Gels were fixed in 40% methanol:10% acetic acid for 1 h and washed overnight with 20% methanol:7% acetic acid. After 15 min in 50% methanol:2% glycerol gels were dried and exposed overnight. Bands corresponding to EGFR were excised from the gels and counted in a β-counter.

[3] = tested on: A431 cells; experiment: SRB-Antiproliferative assay (A431 assay); type: cell-based; conditions: Homo sapiens, A-431, 72 h, read-out: A431 IC50
Protocol: SRB-Antiproliferative assay (A431 assay)
A431 cells were seeded into 96-well microtiter plates (5000 cells/cm^2) and incubated overnight at 37° C./5% CO2. Compounds dissolved in DMSO were added in serial dilution and plates were incubated for 3 days at 37° C./5% CO2. Cells were fixed with cold TCA (10% final concentration) and stained with 0.4% Sulforhodamine B dye in 1% acetic acid for 30 min.

T1 sequence (P00533 25-1210): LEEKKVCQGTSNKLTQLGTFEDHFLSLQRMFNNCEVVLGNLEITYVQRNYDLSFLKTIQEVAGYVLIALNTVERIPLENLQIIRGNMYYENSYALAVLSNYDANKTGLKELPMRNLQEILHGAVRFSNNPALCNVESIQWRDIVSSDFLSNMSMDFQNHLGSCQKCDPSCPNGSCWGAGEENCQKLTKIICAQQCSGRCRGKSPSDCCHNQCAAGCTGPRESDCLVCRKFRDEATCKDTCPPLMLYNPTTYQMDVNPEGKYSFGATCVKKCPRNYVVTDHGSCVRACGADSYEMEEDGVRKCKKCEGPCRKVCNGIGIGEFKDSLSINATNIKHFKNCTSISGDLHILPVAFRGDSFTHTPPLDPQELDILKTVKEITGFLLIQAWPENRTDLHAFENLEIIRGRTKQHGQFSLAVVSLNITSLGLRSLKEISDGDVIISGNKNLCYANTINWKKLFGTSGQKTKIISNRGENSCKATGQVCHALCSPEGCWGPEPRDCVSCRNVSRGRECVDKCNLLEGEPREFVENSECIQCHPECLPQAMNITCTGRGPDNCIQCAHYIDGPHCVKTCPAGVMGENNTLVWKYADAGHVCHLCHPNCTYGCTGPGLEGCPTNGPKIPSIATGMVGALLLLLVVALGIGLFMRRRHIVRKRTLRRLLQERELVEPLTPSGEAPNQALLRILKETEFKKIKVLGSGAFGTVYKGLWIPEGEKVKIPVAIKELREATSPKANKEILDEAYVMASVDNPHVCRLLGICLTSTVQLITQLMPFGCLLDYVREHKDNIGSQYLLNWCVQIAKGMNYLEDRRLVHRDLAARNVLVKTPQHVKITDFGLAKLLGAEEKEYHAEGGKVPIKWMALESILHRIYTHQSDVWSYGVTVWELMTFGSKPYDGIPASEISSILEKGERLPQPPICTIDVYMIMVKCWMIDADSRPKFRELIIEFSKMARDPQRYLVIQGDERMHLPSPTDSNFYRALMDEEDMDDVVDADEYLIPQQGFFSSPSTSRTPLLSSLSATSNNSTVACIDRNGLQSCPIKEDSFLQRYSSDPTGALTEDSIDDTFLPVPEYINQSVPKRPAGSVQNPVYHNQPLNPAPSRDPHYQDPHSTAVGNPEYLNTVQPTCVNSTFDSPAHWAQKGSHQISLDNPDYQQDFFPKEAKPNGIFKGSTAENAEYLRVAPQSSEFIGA

Compound | IC50 ([1]; A431 cells, 100 ng/ml EGF, 10 min stimulation) [nM] | inhibition at 1 µM [2] [%] | inhibition at 10 µM [2] [%] | IC50 [2] [nM] | IC50 ([3]; A431 cells, 3 days, SRB) [nM] | IC50 [1] [nM] | IC50 [3] [nM]
COc1cc2ncnc(N[C@H](CO)c3ccccc3)c2cc1OC [FCE 29771, (S)-4-[α-(hydroxymethyl)benzylamino]-6,7dimethoxyquinazoline] | 800 | 93.8 | 98.3 | 24 | > 1560 |  | 
COc1cc2ncnc(N[C@H](COC(C)=O)c3ccccc3)c2cc1OC [FCE 29772, (S)-4-[α-(acetoxymethyl)benzylamino]-6,7dimethoxyquinazoline] |  | 94.9 | 98 | 81 |  | 1310 | 5300
